From ChEMBL document CHEMBL1127397, “The synthesis of nucleoside 5'-O-(1,1-dithiotriphosphates)” (J Med Chem, 1994)
Converted amounts (≈) assume the structure as drawn.

Legend:
[1] = target: Human immunodeficiency virus type 1 reverse transcriptase (Human immunodeficiency virus 1, UniProt Q72547); experiment: Tested against HIV-1 reverse transcriptase (HIV-1 RT) with poly(rA)/(dT)12-18 as template and [methyl-3H]-dTTP as competing substrate; format: functional
CCRF-CEM [2] = experiment: Tested for the ability to inhibit HIV-2 (ROD) replication in CEM cells; format: functional, cell-based; details: Homo sapiens
CCRF-CEM [3] = experiment: Tested for the ability to inhibit HIV-1 (IIIB) replication in CEM cells; format: functional, cell-based; details: Homo sapiens

IC50 [1] [nM]	EC50 (CCRF-CEM [3]) [µg/mL]	Structure (SMILES)	EC50 (CCRF-CEM [2]) [µg/mL]
3	–	Cc1cn([C@H]2C[C@H](N=[N+]=[N-])[C@@H](CO[P@](=O)(O)O[P@](=O)(O)OP(=O)(O)O)O2)c(=O)[nH]c1=O [ZIDOVUDINE TRIPHOSPHATE]	–
–	> 50	Nc1nc(O)c2ncn([C@H]3CC(O)C(COP(=S)(S)OP(=O)(O)OP(=O)(O)O)O3)c2n1 (stereo not given in full)	> 50
940	0.5 (≈ 0.927 µM)	Cc1cn([C@H]2CC(N=[N+]=[N-])C(COP(=S)(S)OP(=O)(O)OP(=O)(O)O)O2)c(=O)[nH]c1=O (stereo not given in full)	–
–	> 50	Nc1nc(O)c2ncn(C3O[C@H](COP(=S)(S)OP(=O)(O)OP(=O)(O)O)[C@@H](O)[C@H]3O)c2n1 (stereo not given in full)	> 50
–	42 (≈ 77.9 µM)	Nc1ncnc2c1ncn2C1O[C@H](COP(=S)(S)OP(=O)(O)OP(=O)(O)O)[C@@H](O)[C@H]1O (stereo not given in full)	116 (≈ 215 µM)

Structure (SMILES)	IC50 [1] [nM]	EC50 (CCRF-CEM [3]) [µg/mL]	EC50 (CCRF-CEM [2]) [µg/mL]
Cc1cn([C@H]2CC(O)C(COP(=S)(S)OP(=O)(O)OP(=O)(O)O)O2)c(=O)[nH]c1=O (stereo not given in full)	–	> 50	> 50
Nc1ccn([C@H]2CC(O)C(COP(=S)(S)OP(=O)(O)OP(=O)(O)O)O2)c(=O)n1 (stereo not given in full)	–	97 (≈ 194 µM)	123 (≈ 246 µM)
Nc1ncnc2c1ncn2[C@H]1CC(O)C(COP(=S)(S)OP(=O)(O)OP(=O)(O)O)O1 (stereo not given in full)	–	43 (≈ 82.2 µM)	50 (≈ 95.5 µM)
